Assays:
Conditions in all cases: 72 h
[1] = tested on: HepG2; assay: relative viability EC50 (midpoint between 100% and the lowest measured viability); higher = less toxic
[2] = tested on: Calu-3; assay: as above
[3] = tested on: U2OS; assay: as above
[4] = tested on: Caco-2; assay: as above
[5] = tested on: Vero E6; assay: as above
[6] = tested on: HepG2; assay: drug sensitivity score (DSS) for viability; higher = more toxic; extreme values may be limits of the assay
[7] = tested on: Calu-3; assay: as above
[8] = tested on: U2OS; assay: as above
[9] = tested on: Caco-2; assay: as above
[10] = tested on: Vero E6; assay: as above
[11] = tested on: HepG2; assay: cell viability relative to DMSO; higher = less toxic
[12] = tested on: Calu-3; assay: as above
[13] = tested on: U2OS; assay: as above
[14] = tested on: Caco-2; assay: as above
[15] = tested on: Vero E6; assay: as above

CN1CCC(=C2c3ccccc3CCc3sccc32)CC1 [pizotifen]
relative viability EC50 [1]: > 10 µM
relative viability EC50 [2]: > 10 µM
relative viability EC50 [3]: > 10 µM
relative viability EC50 [4]: > 10 µM
relative viability EC50 [5]: > 10 µM
drug sensitivity score [6]: 0
drug sensitivity score [7]: 0
drug sensitivity score [8]: 0
drug sensitivity score [9]: 0
drug sensitivity score [10]: 0
cell viability ([11]; 1 nM): 96.2%
cell viability ([11]; 10 nM): 101%
cell viability ([11]; 100 nM): 99.1%
cell viability ([11]; 1000 nM): 109%
cell viability ([11]; 10000 nM): 101%
cell viability ([12]; 1 nM): 96%
cell viability ([12]; 10 nM): 88.7%
cell viability ([12]; 100 nM): 102%
cell viability ([12]; 1000 nM): 91.3%
cell viability ([12]; 10000 nM): 98.2%
cell viability ([13]; 1 nM): 94.6%
cell viability ([13]; 10 nM): 95.6%
cell viability ([13]; 100 nM): 101%
cell viability ([13]; 1000 nM): 94.4%
cell viability ([13]; 10000 nM): 94.6%
cell viability ([14]; 1 nM): 97.6%
cell viability ([14]; 10 nM): 104%
cell viability ([14]; 100 nM): 101%
cell viability ([14]; 1000 nM): 107%
cell viability ([14]; 10000 nM): 99.2%
cell viability ([15]; 1 nM): 98.3%
cell viability ([15]; 10 nM): 98.6%
cell viability ([15]; 100 nM): 97.9%
cell viability ([15]; 1000 nM): 100%
cell viability ([15]; 10000 nM): 103%

COc1ccc(CNC(=O)c2sc3nc(C)cc(C)c3c2N)cc1
relative viability EC50 [1]: > 10 µM
relative viability EC50 [2]: > 10 µM
relative viability EC50 [3]: > 10 µM
relative viability EC50 [4]: > 10 µM
relative viability EC50 [5]: > 10 µM
drug sensitivity score [6]: 0
drug sensitivity score [7]: 0
drug sensitivity score [8]: 0
drug sensitivity score [9]: 0
drug sensitivity score [10]: 0
cell viability ([11]; 1 nM): 83.3%
cell viability ([11]; 10 nM): 94.4%
cell viability ([11]; 100 nM): 93.9%
cell viability ([11]; 1000 nM): 91.9%
cell viability ([11]; 10000 nM): 107%
cell viability ([12]; 1 nM): 98.7%
cell viability ([12]; 10 nM): 98.8%
cell viability ([12]; 100 nM): 98.2%
cell viability ([12]; 1000 nM): 97.6%
cell viability ([12]; 10000 nM): 101%
cell viability ([13]; 1 nM): 94.1%
cell viability ([13]; 10 nM): 92.1%
cell viability ([13]; 100 nM): 92.5%
cell viability ([13]; 1000 nM): 96.4%
cell viability ([13]; 10000 nM): 94.7%
cell viability ([14]; 1 nM): 95.8%
cell viability ([14]; 10 nM): 96.7%
cell viability ([14]; 100 nM): 93.6%
cell viability ([14]; 1000 nM): 97.1%
cell viability ([14]; 10000 nM): 93.5%
cell viability ([15]; 1 nM): 95.8%
cell viability ([15]; 10 nM): 101%
cell viability ([15]; 100 nM): 106%
cell viability ([15]; 1000 nM): 93.2%
cell viability ([15]; 10000 nM): 94.4%

C[C@@H](CN1CCC(Cc2ccccc2)CC1)[C@@H](O)c1ccc(O)cc1 [Ro-25-6981]
relative viability EC50 [1]: > 10 µM
relative viability EC50 [2]: > 10 µM
relative viability EC50 [3]: > 10 µM
relative viability EC50 [4]: > 10 µM
relative viability EC50 [5]: > 10 µM
drug sensitivity score [6]: 0
drug sensitivity score [7]: 0
drug sensitivity score [8]: 0
drug sensitivity score [9]: 0
drug sensitivity score [10]: 0
cell viability ([11]; 1 nM): 93.9%
cell viability ([11]; 10 nM): 100%
cell viability ([11]; 100 nM): 102%
cell viability ([11]; 1000 nM): 101%
cell viability ([11]; 10000 nM): 102%
cell viability ([12]; 1 nM): 97.4%
cell viability ([12]; 10 nM): 98.2%
cell viability ([12]; 100 nM): 89.1%
cell viability ([12]; 1000 nM): 95.8%
cell viability ([12]; 10000 nM): 107%
cell viability ([13]; 1 nM): 99.1%
cell viability ([13]; 10 nM): 102%
cell viability ([13]; 100 nM): 96.5%
cell viability ([13]; 1000 nM): 96.8%
cell viability ([13]; 10000 nM): 100%
cell viability ([14]; 1 nM): 97.1%
cell viability ([14]; 10 nM): 92.3%
cell viability ([14]; 100 nM): 86.9%
cell viability ([14]; 1000 nM): 94.4%
cell viability ([14]; 10000 nM): 94.3%
cell viability ([15]; 1 nM): 103%
cell viability ([15]; 10 nM): 102%
cell viability ([15]; 100 nM): 103%
cell viability ([15]; 1000 nM): 107%
cell viability ([15]; 10000 nM): 99.8%
